Experimental data taken from PubChem BioAssay AID1996.
Values after ≈ are worked out from the molar mass of the structure shown.

details: buffer; pH 7.4; 200.0 µM

Row | Compound | solubility kinetic
1 | COC(=O)CN1C(=O)COc2ccc(S(=O)(=O)NCc3ccccc3)cc21 | 0.0583 mg/mL (≈ 149 µM)
2 | Nc1ccccc1-n1cccc1 | 0.0145 mg/mL (≈ 91.7 µM)
3 | Cc1nn(C)c(C)c1NS(=O)(=O)c1ccccc1Cl | > 0.045 mg/mL
4 | Cn1c(=O)c2nc(-c3ccccc3)c(-c3ccccc3)nc2n(C)c1=O | 0.0009 mg/mL (≈ 2.61 µM)
5 | CC1CCN(CCCNc2cc(NCCO)c([N+](=O)[O-])c3nonc23)CC1 | > 0.0568 mg/mL
6 | O=c1oc2ccccc2n1Cc1ccccc1F | 0.0042 mg/mL (≈ 17.3 µM)
7 | CCOc1ncccc1C(=O)OCc1ccc([N+](=O)[O-])cc1 | 0.0013 mg/mL (≈ 4.3 µM)
8 | Cc1c(C(=O)NC2CCCCC2)oc2ccccc12 | 0.0053 mg/mL (≈ 20.6 µM)
9 | CC(=O)c1ccc(OCC(C)Oc2ccc(C#N)cc2)cc1 (stereo not given) | 0.0233 mg/mL (≈ 78.9 µM)
10 | COc1cc2c(cc1OC)CN(C(=O)CCC(=O)c1ccc(F)cc1)CC2 | > 0.0557 mg/mL
11 | Cc1ccc2[nH]c(C)c(CC(=O)NCc3ccccc3)c2c1 | > 0.0439 mg/mL
12 | O=C(/C=C/c1ccc(Cl)cc1)Nc1cc(S(=O)(=O)N2CCOCC2)ccc1N1CCOCC1 | 0.0059 mg/mL (≈ 12 µM)
13 | O=C(Nc1ccc(Br)cc1)N1CCc2ccccc2C1 | 0.0011 mg/mL (≈ 3.32 µM)
14 | O=C1c2ccccc2NC(c2cccc(O)c2)N1Cc1ccco1 (stereo not given) | > 0.0481 mg/mL
15 | CC(=O)Nc1ccc(SCC(=O)c2cc(C)ccc2C)cc1 | 0.028 mg/mL (≈ 89.3 µM)
16 | O=C(CCC1CCCC1)NCCCNC(=O)CCC1CCCC1 | 0.0362 mg/mL (≈ 112 µM)
17 | CN(Cc1ccc(C(F)(F)F)cc1)C(=O)C1CC(=O)N(Cc2ccco2)C1 (stereo not given) | 0.0518 mg/mL (≈ 136 µM)
18 | CC(=O)Nc1ccc(C(=O)Nc2ccncc2)cc1 | 0.0316 mg/mL (≈ 124 µM)
19 | Cc1cnc(=O)[nH]c1SCc1cccc(C(F)(F)F)c1 | 0.0083 mg/mL (≈ 27.6 µM)
20 | Cc1ccc(N2CC(C(=O)N3CCCCCC3)CC2=O)cc1 (stereo not given) | > 0.0451 mg/mL

Row | Compound | solubility kinetic
21 | O=[N+]([O-])c1ccc(N2CCN(C(=S)Nc3ccc(F)cc3)CC2)cc1 | 0.0004 mg/mL (≈ 1.11 µM)
22 | O=C(/C=C/c1ccccc1[N+](=O)[O-])N1CCOCC1 | > 0.0393 mg/mL
23 | CCN1CCC(N(C)C2CCCCC2)CC1 | 0.024 mg/mL (≈ 107 µM)
24 | CSc1nc(N)nc(C(C)C)n1 | > 0.0276 mg/mL
25 | Cc1cc(C(=O)NC2CCC(O)CC2)c(C)o1 (stereo not given) | > 0.0356 mg/mL
26 | S=C(NCc1ccccc1)Nc1cccc2ccccc12 | 0.0038 mg/mL (≈ 13 µM)
27 | O=C(c1ccccc1)N1CCN(CCc2ccccn2)CC1 | > 0.0443 mg/mL
28 | O=C(/C=C/c1cccs1)Nc1nccs1 | 0.0007 mg/mL (≈ 2.96 µM)
29 | Cc1nc2ccc(C(=O)N3CCN(Cc4ccccc4)CC3)cc2[nH]1 | 0.0497 mg/mL (≈ 149 µM)
30 | COc1ccccc1C(=O)NCCC(=O)NCC1CCCO1 (stereo not given) | > 0.046 mg/mL
31 | CCNC(=O)Cc1ccc(S(=O)(=O)N2CCOCC2)s1 | > 0.0478 mg/mL
32 | CCC(C)n1c(O)c(C=NCCN2CCOCC2)c(=O)[nH]c1=S (stereo not given) | > 0.0511 mg/mL
33 | FC(F)Oc1ccc(NC(=S)NC2CCCCCCC2)cc1 | 0.0007 mg/mL (≈ 2.13 µM)
34 | COc1ccc(C(=O)COC(=O)c2cc(C)no2)c(OC)c1 | > 0.0458 mg/mL
35 | OCCOCCN1CCN(C(=S)Nc2ccccc2)CC1 | > 0.0464 mg/mL
36 | Cc1cc(C)c(S(=O)(=O)c2cc(F)ccc2C)c(=O)[nH]1 | 0.0133 mg/mL (≈ 45 µM)
37 | COc1ccc(/C=C/C(=O)NC(=S)N2CCCCC2)cc1OC | > 0.0502 mg/mL
38 | Clc1ccc(OCCNCCc2ccccc2)cc1.O=C(O)C(=O)O | > 0.0549 mg/mL
39 | CCOC(=O)c1c(C)[nH]c(C(=O)COC(=O)c2ccco2)c1C | 0.0031 mg/mL (≈ 9.71 µM)
40 | CCCCn1c(=O)[nH]c2c(oc3ccccc32)c1=O | 0.0017 mg/mL (≈ 6.58 µM)

Row | Compound | solubility kinetic
41 | CS(=O)(=O)Nc1ccccc1C(=O)NCCSc1ccc(Cl)cc1 | 0.0338 mg/mL (≈ 87.8 µM)
42 | CCOc1ccc(CNc2ccc(N3CCCC3)cc2)cc1 | 0.0031 mg/mL (≈ 10.5 µM)
43 | CC1=CCC2C(=O)N(c3ccc(S(N)(=O)=O)cc3)C(=O)C2C1 (stereo not given) | > 0.0481 mg/mL
44 | COc1ccc(NC(C)=O)cc1S(=O)(=O)N1CC=C(c2ccccc2)CC1 | 0.0026 mg/mL (≈ 6.73 µM)
45 | CC(C(=O)N1CCOCC1)n1cc([N+](=O)[O-])cn1 (stereo not given) | > 0.0381 mg/mL
46 | O=C(NCC(O)c1ccccc1)c1ccccc1 (stereo not given) | > 0.0362 mg/mL
47 | CC(C)c1ccc(NC(=O)Cn2c(=O)oc3cccnc32)cc1 | 0.0077 mg/mL (≈ 24.7 µM)
48 | O=C(Nc1cccc(O)c1)c1ccccc1[N+](=O)[O-] | 0.0363 mg/mL (≈ 141 µM)
49 | CC(OC(=O)CCCC(=O)Nc1ccccc1)C(=O)c1ccccc1 (stereo not given) | 0.0456 mg/mL (≈ 134 µM)
50 | CCN(CC)Cc1nc2sc(C)c(C)c2c(=O)[nH]1 | 0.0349 mg/mL (≈ 132 µM)
51 | Cc1cccc(N2CCN(CC3CCCCC3)CC2)c1C | 0.0029 mg/mL (≈ 10.1 µM)
52 | Cc1cccc(OC(C)C(=O)Nc2ccc(S(=O)(=O)N3CCCC3)cc2)c1 (stereo not given) | 0.0164 mg/mL (≈ 42.2 µM)
53 | Cc1sc(NC(=O)CN2CCOCC2)c(C#N)c1C | > 0.0419 mg/mL
54 | CCCc1cc(=O)[nH]c(SCC(=O)NC2CCCCCCC2)n1 | 0.0145 mg/mL (≈ 43 µM)
55 | CC(=O)O.CC1=CC(C)C(/C=N/N=C(N)N)C(C)C1 (stereo not given) | > 0.0403 mg/mL
56 | CCC(C)c1ccc(NC(=O)COC(=O)CCNS(=O)(=O)c2cccs2)cc1 (stereo not given) | 0.0212 mg/mL (≈ 49.9 µM)
57 | O=C(CS(=O)(=O)Cc1ccccc1)Nc1ccc2c(c1)OCO2 | 0.0157 mg/mL (≈ 47.1 µM)
58 | CCNC(=O)C(=O)Nc1cc2c3c(c1)CCN3C(=O)CC2 | > 0.0431 mg/mL
59 | O=[N+]([O-])c1ccc2cn[nH]c2c1 | > 0.0245 mg/mL
60 | O=C(CN1C(=O)NC2(CCCC2)C1=O)NCCc1ccccc1 | 0.0448 mg/mL (≈ 142 µM)
